This assay is described as follows: Inhibition of glutathione S-transferase in rat liver.

Molecules are shown by their SMILES.

The IC50 is the point on the concentration scale where inhibition reaches its midpoint. Low readings indicate greater potency, high ones weaker potency.

In turn, `O=C(O)CNC(=O)[C@H](CS)NC(=O)CC[C@H](NC(=O)c1ccc(C(=O)c2ccccc2)cc1)C(=O)O` came in with a concentration for half-maximal inhibition (IC50) of 1000 µM.

The record behind these values is ChEMBL document CHEMBL1139024, “Synthesis and evaluation of an N-acylated photoactivatable analogue of glutathione as probe for glutathione-utilizing enzymes” (Bioorg Med Chem Lett, 2006).
